Experimental findings from ChEMBL document CHEMBL2375302, “Synthesis, antimicrobial, antiquorum-sensing, antitumor and cytotoxic activities of new series of fused [1,3,4]thiadiazoles” (Eur J Med Chem, 2013) are described below.

Converted amounts (≈) assume the structure as drawn.

One data set has as its system Candida albicans. Kind of data set: Antifungal activity against Candida albicans at 5 mg/mL after 48 hrs. In kind it is functional. The settings on record: read-out: DIZ.
Data set [1] can be described thus: Toxicity against brine shrimp larvae assessed as mortality at 10 ug/mL after 24 hrs by binocular microscopic analysis relative to control. Conditions: artemia salina, in vivo. It is filed as organism-based.
The next data set has as its system Escherichia coli. Kind of data set: Antibacterial activity against Escherichia coli at 5 mg/mL after 24 hrs. In kind it is functional. Conditions: read-out: DIZ.
Data set [2] can be described thus: Toxicity against brine shrimp larvae assessed as mortality at 500 ug/mL after 24 hrs by binocular microscopic analysis relative to control. It is filed as organism-based. The settings on record: artemia salina, in vivo.
Data set [3] in a line: Toxicity against brine shrimp larvae assessed as mortality at 1000 ug/mL after 24 hrs by binocular microscopic analysis relative to control. In kind it is organism-based. The settings on record: artemia salina, in vivo.
In the next data set the test system is Aspergillus flavus. The data set can be described thus: Antifungal activity against Aspergillus flavus 3372 at 5 mg/mL after 48 hrs. It is filed as functional. Conditions: Aspergillus flavus, 3372, 48 h; read-out: DIZ.
A short description of data set [4]: (§1) Toxicity against brine shrimp larvae assessed as mortality after 24 hrs by binocular microscopic analysis. Conditions: artemia salina, in vivo. It is filed as organism-based.
A further data set concerns Artemia salina. Described as §1. In kind it is organism-based. The settings on record: in vivo, 24 h.
The next data set relates to Bacillus cereus. Kind of data set: Antibacterial activity against Bacillus cereus at 5 mg/mL after 24 hrs. It is filed as functional. Conditions: read-out: DIZ.
For a further data set, the system named is Staphylococcus aureus. The data set can be described thus: Antibacterial activity against Staphylococcus aureus at 5 mg/mL after 24 hrs. In kind it is functional. Conditions: read-out: DIZ.
Data set [5] relates to Chromobacterium violaceum. The data set can be described thus: Antiquorum-sensing activity against Chromobacterium violaceum ATCC 12472 after 48 hrs. In kind it is functional.
Another data set has as its system Aspergillus fumigatus. The data set can be described thus: Antifungal activity against Aspergillus fumigatus Af293 at 5 mg/mL after 48 hrs. In kind it is functional. Conditions: Af293, 48 h, read-out: DIZ.
Data set [6] in a line: Toxicity against brine shrimp larvae assessed as mortality at 100 ug/mL after 24 hrs by binocular microscopic analysis relative to control. The settings on record: artemia salina, in vivo. In kind it is organism-based.

By mortality is commonly meant the percentage killed. Broadly, the LC50 is the concentration that kills 50% of the test population. As to `CCOC(=O)C1C(=O)N=C2SC(S(N)(=O)=O)=NN2C1c1ccc(Cl)cc1` (stereo unspecified), the zone of inhibition at 5000 µg/mL in the data set on Candida albicans is below 2 mm; in the data set on Escherichia coli it was below 2 mm; in the data set with Aspergillus flavus it was below 2 mm; in the data set on Bacillus cereus it was 4 mm; in the data set on Staphylococcus aureus, 3 mm; in the data set on Aspergillus fumigatus, below 2 mm. In addition, in data set [1], the mortality at 24 h, 10 ug/mL was 36.6%. In addition, the mortality at 24 h, 500 ug/mL in [2] worked out at 70%. Also, the mortality at 24 h, 1000 ug/mL in [3] was 83.3%. Besides, the LC50 at 24 h in data set [4] turned out to be 508 µg/mL (≈ 1220 µM). Besides, the LC90 in the data set on Artemia salina was 914.63 µg/mL (≈ 2190 µM). Further, the “diameter of the inhibition zone (DIZ)” value in data set [5] stood at 11 mm. Further, the mortality at 24 h, 100 ug/mL in data set [6] was 53.3%.
In the case of `CCOC(=O)C1C(=O)N=C2SC(S(N)(=O)=O)=NN2C1c1ccc(OC)c(OC)c1` (stereo unspecified), the zone of inhibition at 5000 µg/mL with Candida albicans is 4 mm; in the data set with Escherichia coli, below 2 mm; in the data set on Aspergillus flavus it was below 2 mm; in the data set on Bacillus cereus it was 7 mm; with Staphylococcus aureus it was 8 mm; in the data set with Aspergillus fumigatus it was below 2 mm. Also, the mortality at 24 h, 10 ug/mL in data set [1] turned out to be 50%. The mortality at 24 h, 500 ug/mL in data set [2] was 83.3%. Besides, the mortality at 24 h, 1000 ug/mL in data set [3] stood at 93.3%. For the same compound, in data set [4], the LC50 at 24 h came out at 442 µg/mL (≈ 1000 µM). Moreover, in the data set with Artemia salina, the LC90 amounted to 796.46 µg/mL (≈ 1800 µM). The “diameter of the inhibition zone (DIZ)” value in data set [5] came to 8 mm. In addition, the mortality at 24 h, 100 ug/mL in data set [6] was determined as 70%.
For `N#CC1C(=O)N=C2SC(S(N)(=O)=O)=NN2C1c1ccc(Cl)cc1` (stereo unspecified), the zone of inhibition at 5000 µg/mL in the data set on Candida albicans is 8 mm; in the data set with Escherichia coli, below 2 mm; in the data set with Aspergillus flavus, below 2 mm; with Bacillus cereus, below 2 mm; in the data set with Staphylococcus aureus, below 2 mm; with Aspergillus fumigatus, 6 mm. Moreover, in [1], the mortality at 24 h, 10 ug/mL was 23.3%. Further, the mortality at 24 h, 500 ug/mL in [2] was 50%. The mortality at 24 h, 1000 ug/mL in data set [3] turned out to be 66.6%. Besides, the LC50 at 24 h in data set [4] came out at 660 µg/mL (≈ 1780 µM). The LC90 with Artemia salina is 1187.33 µg/mL (≈ 3210 µM). Besides, in [5], the “diameter of the inhibition zone (DIZ)” value was determined as 11 mm. The mortality at 24 h, 100 ug/mL in data set [6] came out at 36.6%.
On to `COc1ccc(C2C(C#N)C(=O)N=C3SC(S(N)(=O)=O)=NN32)cc1OC` (stereo unspecified), for which the zone of inhibition at 5000 µg/mL in the data set with Candida albicans was 24 mm; in the data set with Escherichia coli, below 2 mm; in the data set on Aspergillus flavus, below 2 mm; in the data set with Bacillus cereus it was 9 mm; with Staphylococcus aureus it was 10 mm; in the data set with Aspergillus fumigatus, 8 mm. Also, the mortality at 24 h, 10 ug/mL in data set [1] is 36.6%. Besides, in [2], the mortality at 24 h, 500 ug/mL turned out to be 60%. The mortality at 24 h, 1000 ug/mL in data set [3] was found to be 70%. Moreover, the LC50 at 24 h in [4] was 598 µg/mL (≈ 1510 µM). In the data set on Artemia salina, the LC90 came to 1076.55 µg/mL (≈ 2720 µM). For the same compound, the “diameter of the inhibition zone (DIZ)” value in [5] was 8 mm. Moreover, in [6], the mortality at 24 h, 100 ug/mL was found to be 50%.
In the case of `CN(C)c1ccc(C2C(C#N)C(=O)N=C3SC(S(N)(=O)=O)=NN32)cc1` (stereo unspecified), the zone of inhibition at 5000 µg/mL is 32 mm in the data set with Candida albicans; below 2 mm in the data set with Escherichia coli; below 2 mm in the data set on Aspergillus flavus; 6 mm in the data set with Bacillus cereus; 7 mm in the data set on Staphylococcus aureus; 8 mm in the data set with Aspergillus fumigatus. Also, the mortality at 24 h, 10 ug/mL in data set [1] was found to be 70%. For the same compound, the mortality at 24 h, 500 ug/mL in [2] was determined as 96.6%. Besides, the mortality at 24 h, 1000 ug/mL in data set [3] came out at 100%. In addition, the LC50 at 24 h in data set [4] was 400 µg/mL (≈ 1060 µM). Moreover, the LC90 with Artemia salina turned out to be 719.42 µg/mL (≈ 1900 µM). Besides, in data set [5], the “diameter of the inhibition zone (DIZ)” value amounted to 6 mm. In addition, the mortality at 24 h, 100 ug/mL in data set [6] was found to be 86.6%.
In the case of `Nc1c(/N=N/c2ccccc2)c(=O)nc2sc(S(N)(=O)=O)nn12`, the zone of inhibition at 5000 µg/mL is 4 mm in the data set with Candida albicans; 10 mm with Escherichia coli; below 2 mm in the data set with Aspergillus flavus; 7 mm in the data set with Bacillus cereus; 7 mm in the data set on Staphylococcus aureus; below 2 mm with Aspergillus fumigatus. Further, in data set [1], the mortality at 24 h, 10 ug/mL amounted to 66.6%. Moreover, the mortality at 24 h, 500 ug/mL in [2] was determined as 90%. Also, the mortality at 24 h, 1000 ug/mL in data set [3] is 96.6%. Moreover, the LC50 at 24 h in data set [4] turned out to be 419 µg/mL (≈ 1190 µM). Besides, the LC90 in the data set on Artemia salina was 755.03 µg/mL (≈ 2150 µM). Besides, the “diameter of the inhibition zone (DIZ)” value in [5] is given as below 2 mm. Moreover, the mortality at 24 h, 100 ug/mL in data set [6] was found to be 80%.
In the case of `Nc1c(/N=N/c2ccc(Br)cc2)c(=O)nc2sc(S(N)(=O)=O)nn12`, the zone of inhibition at 5000 µg/mL in the data set with Candida albicans is 6 mm; in the data set with Escherichia coli it was below 2 mm; in the data set with Aspergillus flavus, below 2 mm; in the data set with Bacillus cereus it was 5 mm; in the data set on Staphylococcus aureus, 9 mm; with Aspergillus fumigatus, 4 mm. In addition, the mortality at 24 h, 10 ug/mL in [1] came to 46.6%. Moreover, in data set [2], the mortality at 24 h, 500 ug/mL turned out to be 80%. Also, the mortality at 24 h, 1000 ug/mL in data set [3] was 90%. Moreover, the LC50 at 24 h in [4] came out at 460 µg/mL (≈ 1070 µM). In the data set on Artemia salina, the LC90 came to 827.2 µg/mL (≈ 1920 µM). Besides, the “diameter of the inhibition zone (DIZ)” value in [5] was 12 mm. Also, the mortality at 24 h, 100 ug/mL in data set [6] was 66.6%.
